This is an account of results in paper PMC3448056, “2-Benzamido-N-(1H-benzo[d]imidazol-2-yl)thiazole-4-carboxamide derivatives as potent inhibitors of CK1δ/ε” (Amino Acids, 2012).

Holding throughout (assay type): biochemical
One experiment concerns the target T1, CK1δkd (Rattus norvegicus, UniProt Q06486).
T1 construct: Recombinant CK1δ kinase domain (CK1δkd, NEB, Frankfurt am Main, Germany); purchased NEB, Frankfurt am Main, Germany
T1 sequence (Q06486 9-277 limits assumed): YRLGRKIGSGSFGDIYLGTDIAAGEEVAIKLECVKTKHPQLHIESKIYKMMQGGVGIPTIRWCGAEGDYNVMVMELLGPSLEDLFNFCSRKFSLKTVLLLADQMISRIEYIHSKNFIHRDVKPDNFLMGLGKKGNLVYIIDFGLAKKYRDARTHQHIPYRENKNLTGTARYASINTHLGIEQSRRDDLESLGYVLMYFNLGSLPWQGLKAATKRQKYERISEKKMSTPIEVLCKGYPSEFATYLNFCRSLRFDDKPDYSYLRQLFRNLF
Nature of the experiment: In vitro kinase assay, CK1δ kinase domain. To be noted: for activity against CK1δkd (in words, SAR discussion): kinase assays using a CK1 specific substrate.

Another experiment has as its target T2, GST-rat CK1δ (Rattus norvegicus, UniProt Q06486).
T2 construct: made in house; host or cells: bacteria (pGEX-2T)
Nature of the experiment: In vitro kinase assay, GST-rat CK1δ.

For another experiment, the target named is T3, human CK1ε (Homo sapiens, UniProt P49674).
T3 construct: purchased Invitrogen, Karlsruhe, Germany
Nature of the experiment: In vitro kinase assay, CK1ε.

Another experiment concerns the target T4, GST-mouse CK1δTV1 (Mus musculus, UniProt Q9DC28).
T4 construct: made in house; host or cells: bacteria (pGEX-2T)
Nature of the experiment: In vitro kinase assay, GST-mouse CK1δTV1. To be noted: 0.01 mM ATP, substrate GST-mouse p53^1-64; mean ± SD; read-out: IC50 (μM) GST-CK1δ TV1. The source says: (§1) CK1δTV1 and 2 (transcription variants 1 and 2) were PCR amplified from mouse cDNA (5′-primer TV1 and 2: 5′-[…]-3′, 3′-primer TV1: 5′-[…]-3′, 3′-primer TV2: 5′-[…]-3′) and cloned into pcDNA3.1/V5-His© TOPO® TA cloning vector (Invitrogen, Karlsruhe, Germany) before being subcloned into pGEX-2T expression vector via BamHI to generate plasmids pGEX-2T-mouse CK1δTV1 (FP1170) and pGEX-2T-mouse CK1δTV2 (FP1171).
(§2) Expression and purification of the GST-fusion proteins GST-mouse p53^1–64 (FP267), GST-rat CK1δ (FP449), GST-rat CK1δ^M82F (FP1153), GST-mouse CK1δTV1 (FP1170), and GST-mouse CK1δTV2 (FP1171) was carried out as described elsewhere (Wolff et al. [2005]). Expression of fusion proteins FP1170 and 1171 was either performed at 37°C for 2 h, or at 15°C for 14 h. FP449 and FP1153 were always expressed at 15°C for 14 h.
(§3) In vitro kinase assays were carried out in the presence of various potential inhibitors of CK1δ at an ATP concentration of 0.01 mM and dimethyl sulfoxide (DMSO) solvent control as described previously (Knippschild et al. [1996]). Where indicated higher ATP concentrations (0.05, 0.1, 0.25 and 0.5 mM) were used. The fusion protein GST-mouse p53^1−64 (FP267) was used as substrate. Recombinant CK1δ kinase domain (CK1δkd, NEB, Frankfurt am Main, Germany), GST-rat CK1δ (FP449), GST-rat CK1δ^M82F (FP1153), GST-mouse CK1δTV1, GST-mouse CK1δTV2 and recombinant human CK1ε (Invitrogen, Karlsruhe, Germany) were used as sources of enzyme. Phosphorylated proteins were separated by SDS-PAGE and the protein bands were visualized on dried gels by autoradiography. The phosphorylated protein bands were excised and quantified by Cherenkov counting.

In a further experiment the target is T5, GST-mouse CK1δTV2 (Mus musculus, UniProt Q9DC28).
T5 construct: made in house; host or cells: bacteria (pGEX-2T)
T5 sequence (Q9DC28 1-409 isoform Q9DC28-2): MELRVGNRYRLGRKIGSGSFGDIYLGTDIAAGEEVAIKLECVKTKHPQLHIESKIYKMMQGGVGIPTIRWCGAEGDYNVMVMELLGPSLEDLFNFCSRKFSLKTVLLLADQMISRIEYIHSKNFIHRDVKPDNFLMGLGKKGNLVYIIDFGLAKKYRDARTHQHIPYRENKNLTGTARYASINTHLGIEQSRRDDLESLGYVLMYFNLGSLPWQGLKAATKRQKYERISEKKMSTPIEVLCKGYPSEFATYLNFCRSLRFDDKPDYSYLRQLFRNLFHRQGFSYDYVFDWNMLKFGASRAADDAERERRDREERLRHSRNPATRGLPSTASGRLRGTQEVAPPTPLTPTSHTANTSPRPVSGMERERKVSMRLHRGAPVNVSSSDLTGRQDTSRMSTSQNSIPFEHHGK
The experiment can be described thus: In vitro kinase assay, GST-mouse CK1δTV2. The settings on record: 0.01 mM ATP, substrate GST-mouse p53^1-64; mean ± SD; read-out: IC50 (μM) GST-CK1δ TV2.
Source text: as §1, §2, §3

The target in a further experiment is T6, GST-rat CK1δ^M82F (Rattus norvegicus, UniProt Q06486, M82F).
T6 construct: made in house; host or cells: bacteria (pGEX-2T)
T6 sequence (Q06486 1-415 M82F): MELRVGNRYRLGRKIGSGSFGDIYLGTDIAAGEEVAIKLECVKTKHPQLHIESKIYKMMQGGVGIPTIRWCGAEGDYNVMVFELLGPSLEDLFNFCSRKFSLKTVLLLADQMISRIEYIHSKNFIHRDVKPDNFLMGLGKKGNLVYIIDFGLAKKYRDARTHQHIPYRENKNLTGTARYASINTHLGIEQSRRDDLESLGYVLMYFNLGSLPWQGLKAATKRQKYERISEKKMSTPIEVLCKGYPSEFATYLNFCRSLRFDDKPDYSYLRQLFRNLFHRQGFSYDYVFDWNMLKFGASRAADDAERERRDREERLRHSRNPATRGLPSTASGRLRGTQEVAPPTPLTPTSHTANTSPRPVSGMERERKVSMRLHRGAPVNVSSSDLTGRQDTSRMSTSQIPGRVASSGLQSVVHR
The experiment can be described thus: In vitro kinase assay, gatekeeper mutant. The settings on record: inhibitor at its determined IC50 concentration (Fig. 7). The procedure: For the expression of wt rat CK1δ and rat CK1δ^M82F as glutathione S-transferase fusion proteins the plasmids pGEX-2T-CK1δ (FP449) (Knippschild et al. [1997]) and pGEX-2T-CK1δ^M82F (FP1153) (Peifer et al. [2009]) were used.
as §2, §3
Previously it has been shown that methionine 82 plays an important role as gatekeeper residue in the docking mode of isoxazoles to the ATP binding pocket since mutation of methionine 82 to phenylalanine blocks binding of this class of CK1δ specific inhibitors (Peifer et al. [2009]) while still binding ATP. Therefore, we now analyzed the effects of exchanging methionine 82 to phenylalanine on the ability of compounds 4, 5 and 6 to inhibit CK1δ activity.

Where [1] appears, read: 0.01 mM ATP, substrate GST-mouse p53^1-64, mean ± SD.
[2] abbreviates: symbol, tested range 10–0.005 μM.

Structures are written as SMILES. “And” between values parts separate entries of the source, which are not always exact repeats. Equal values may be shown once.

T2 sequence (Q06486 whole entry): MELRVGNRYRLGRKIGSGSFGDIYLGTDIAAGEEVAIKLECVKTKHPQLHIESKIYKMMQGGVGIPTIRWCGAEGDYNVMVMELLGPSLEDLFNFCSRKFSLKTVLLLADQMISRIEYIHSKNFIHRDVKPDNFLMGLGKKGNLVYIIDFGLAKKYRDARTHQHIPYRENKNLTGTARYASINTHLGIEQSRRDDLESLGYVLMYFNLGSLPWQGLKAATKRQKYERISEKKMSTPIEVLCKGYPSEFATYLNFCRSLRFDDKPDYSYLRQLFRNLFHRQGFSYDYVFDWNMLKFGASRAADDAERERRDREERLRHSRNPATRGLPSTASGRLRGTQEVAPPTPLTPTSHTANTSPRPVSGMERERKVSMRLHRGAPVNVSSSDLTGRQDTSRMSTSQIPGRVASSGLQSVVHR
T3 sequence (P49674 whole entry): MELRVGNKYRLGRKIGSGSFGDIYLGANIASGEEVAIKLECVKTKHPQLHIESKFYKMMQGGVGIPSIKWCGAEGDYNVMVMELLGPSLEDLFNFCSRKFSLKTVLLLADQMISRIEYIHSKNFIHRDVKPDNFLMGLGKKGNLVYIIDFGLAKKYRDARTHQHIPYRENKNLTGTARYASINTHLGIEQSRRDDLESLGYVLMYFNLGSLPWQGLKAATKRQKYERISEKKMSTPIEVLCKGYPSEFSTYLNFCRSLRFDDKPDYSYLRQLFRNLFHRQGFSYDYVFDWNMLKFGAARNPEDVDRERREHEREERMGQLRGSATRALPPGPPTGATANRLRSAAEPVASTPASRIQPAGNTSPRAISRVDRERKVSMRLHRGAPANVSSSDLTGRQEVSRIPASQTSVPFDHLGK
T4 sequence (Q9DC28 whole entry): as the sequence (Q06486 whole entry) above

With `O=C(Nc1nc2ccc(C(F)(F)F)cc2[nH]1)c1csc(NC(=O)c2ccco2)n1` [Compound 7, 2-(Furan-2-carboxamido)-N-(6-(trifluoromethyl)-1H-benzo[d]imidazol-2-yl)thiazole-4-carboxamide], the IC50 was determined as 0.542 ± 0.05 µM against CK1δkd (setting [1]) and 1.04 ± 0.31 µM against GST-rat CK1δ (setting [1]).
In the case of `CS(=O)(=O)c1ccc2[nH]c(NC(=O)c3csc(NC(=O)c4ccccc4OC(F)(F)F)n3)nc2c1` [Compound 2, N-(5-(Methylsulfonyl)-1H-benzo[d]imidazol-2-yl)-2-(2-(trifluoromethoxy)benzamido)thiazole-4-carboxamide], the IC50 was found to be 1.23 ± 0.41 µM on CK1δkd (setting [1]) and 5.19 ± 1.14 µM against GST-rat CK1δ (setting [1]). Further, on CK1δkd, the “activity against CK1δkd (in words, SAR discussion)” value (shortened to “activity against CK1δkd”) is reported as “diminished activity”.
As for `Cn1c(NC(=O)c2csc(NC(=O)c3ccccc3OC(F)(F)F)n2)nc2ccccc21` [Compound 3, N-(1-Methyl-1H-benzo[d]imidazol-2-yl)-2-(2-(trifluoromethoxy)benz-amido)thiazole-4-carboxamide], the “activity against CK1δkd” value at CK1δkd is listed as “lost”. For the same compound, the IC50 against CK1δkd (setting [2]) and on GST-rat CK1δ (setting [2]) was above 10 µM throughout.
For `O=C(Nc1nc2ccccc2o1)c1csc(NC(=O)c2ccccc2OC(F)(F)F)n1` [Compound 10, N-(Benzo[d]oxazol-2-yl)-2-(2-(trifluoromethoxy)benzamido)thiazole-4-carboxamide], the IC50 at CK1δkd (setting [1]) was 0.647 ± 0.04 µM; at GST-rat CK1δ (setting [1]) it was 0.991 ± 0.21 µM. The “activity against CK1δkd” value on CK1δkd is on record as “kinase activity was even more decreased”.
As to `COC(=O)c1ccc2[nH]c(NC(=O)c3csc(NC(=O)c4ccccc4OC(F)(F)F)n3)nc2c1` [Compound 1, Methyl 2-(2-(2-(trifluoromethoxy)benzamido)-thiazole-4-carboxamido)-1H-benzo[d]imidazole-5-carboxylate], the IC50 is 0.865 ± 0.14 µM on CK1δkd (setting [1]), 1.97 ± 0.85 µM against GST-rat CK1δ (setting [1]) and 0.496 ± 0.1 µM against human CK1ε (setting [1]). In addition, the “activity against CK1δkd” value on CK1δkd is on record as “diminished activity”.
On to `O=C(Nc1nc(C(=O)Nc2nc3ccc(C(F)(F)F)cc3[nH]2)cs1)c1ccncc1` [Compound 4, 2-(Isonicotinamido)-N-(6-(trifluoromethyl)-1H-benzo[d]imidazol-2-yl)thiazole-4-carboxamide], for which the IC50 came to 0.409 ± 0.12 µM against CK1δkd (setting [1]), 0.326 ± 0.19 µM against GST-rat CK1δ (setting [1]), 0.18 ± 0.03 µM on GST-mouse CK1δTV1 and 0.505 ± 0.04 µM on GST-mouse CK1δTV2. The “inhibition of CK1δkd in initial screen” value on CK1δkd (inhibitor 10 μM, 10 μM ATP (Fig. 1a)) is “significant inhibition”. On CK1δkd (inhibitor at IC50 concentration, ATP 0.01-0.5 mM (Fig. 6)), the mode of inhibition entry was “ATP competitive inhibitors”. In addition, the “GST-wt CK1δ activity in the presence of inhibitor” value at GST-rat CK1δ (inhibitor at its determined IC50 concentration (Fig. 7)) is given as “clearly decreased”. The “inhibition of CK1ε in initial screen” value at human CK1ε (inhibitor 10 μM, 10 μM ATP (Fig. 1b)) was “significant inhibition”. In addition, the “kinase activity of GST-CK1δ^M82F in comparison with inhibition of GST-wt CK1δ” value at GST-rat CK1δ^M82F was “much more affected”.
On to `O=C(Nc1nc2ccccc2[nH]1)c1csc(NC(=O)c2ccccc2OC(F)(F)F)n1` [Compound 8, N-(1H-Benzo[d]imidazol-2-yl)-2-(2-(trifluoromethoxy)benzamido)thiazole-4-carboxamide], for which the results for the IC50 against CK1δkd (setting [1]) and against GST-rat CK1δ (setting [1]) were 1.12 ± 0.19 µM and 0.935 ± 0.55 µM, respectively.
`O=C(Nc1nc2ccccc2s1)c1csc(NC(=O)c2ccccc2OC(F)(F)F)n1` [Compound 9, 2-(2-Trifluoromethoxy-benzoylamino)-thiazole-4-carboxylic acid benzothiazol-2-ylamide]: the IC50 against CK1δkd (setting [1]) was 1.12 µM and 0.73 µM; against GST-rat CK1δ (setting [1]), 1.19 ± 0.39 µM.

As usually defined, the IC50 is the concentration that inhibits the measured activity by half.
